PubChem BioAssay (NCI)
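Method: 48-hour compound exposure of cells in 96-well plates, five concentrations, linear interpolation of endpoints. GI50 is the concentration that inhibits growth by half. At the TGI there is no net growth.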

What was measured:
Test in all cases: NCI-60 cell line screen, 48 h
786-0 renal = tested on: 786-0 renal
A498 renal = tested on: A498 renal
A549 NSCLC = tested on: A549 NSCLC
ACHN renal = tested on: ACHN renal
CCRF-CEM leukemia = tested on: CCRF-CEM leukemia
COLO 205 colon = tested on: COLO 205 colon
DLD-1 colon = tested on: DLD-1 colon
DMS 114 small cell lung = tested on: DMS 114 small cell lung
DMS 273 small cell lung = tested on: DMS 273 small cell lung
EKVX NSCLC = tested on: EKVX NSCLC
HCC-2998 colon = tested on: HCC-2998 colon
HCT-116 colon = tested on: HCT-116 colon
HCT-15 colon = tested on: HCT-15 colon
HL-60(TB) leukemia = tested on: HL-60(TB) leukemia
HOP-18 NSCLC = tested on: HOP-18 NSCLC
HOP-62 NSCLC = tested on: HOP-62 NSCLC
HOP-92 NSCLC = tested on: HOP-92 NSCLC
HT29 colon = tested on: HT29 colon
IGROV1 ovarian = tested on: IGROV1 ovarian
K-562 leukemia = tested on: K-562 leukemia
KM12 colon = tested on: KM12 colon
KM20L2 colon = tested on: KM20L2 colon
LOX IMVI melanoma = tested on: LOX IMVI melanoma
LXFL 529 NSCLC = tested on: LXFL 529 NSCLC
M14 melanoma = tested on: M14 melanoma
MALME-3M melanoma = tested on: MALME-3M melanoma
MOLT-4 leukemia = tested on: MOLT-4 leukemia
NCI-H226 lung = tested on: NCI-H226 lung
NCI-H23 lung = tested on: NCI-H23 lung
NCI-H460 lung = tested on: NCI-H460 lung
NCI-H522 lung = tested on: NCI-H522 lung
OVCAR-3 ovarian = tested on: OVCAR-3 ovarian
OVCAR-4 ovarian = tested on: OVCAR-4 ovarian
OVCAR-8 ovarian = tested on: OVCAR-8 ovarian
RPMI-8226 leukemia = tested on: RPMI-8226 leukemia
RXF 393 renal = tested on: RXF 393 renal
SF-268 CNS = tested on: SF-268 CNS
SF-295 CNS = tested on: SF-295 CNS
SF-539 CNS = tested on: SF-539 CNS
SK-MEL-2 melanoma = tested on: SK-MEL-2 melanoma
SK-MEL-28 melanoma = tested on: SK-MEL-28 melanoma
SK-OV-3 ovarian = tested on: SK-OV-3 ovarian
SN12C renal = tested on: SN12C renal
SNB-19 CNS = tested on: SNB-19 CNS
SNB-75 CNS = tested on: SNB-75 CNS
SNB-78 CNS = tested on: SNB-78 CNS
SR leukemia = tested on: SR leukemia
SW-620 colon = tested on: SW-620 colon
TK-10 renal = tested on: TK-10 renal
U251 CNS = tested on: U251 CNS
UACC-257 melanoma = tested on: UACC-257 melanoma
UACC-62 melanoma = tested on: UACC-62 melanoma
UO-31 renal = tested on: UO-31 renal
XF 498 CNS = tested on: XF 498 CNS
CAKI-1 renal = tested on: CAKI-1 renal
M19-MEL melanoma = tested on: M19-MEL melanoma
OVCAR-5 ovarian = tested on: OVCAR-5 ovarian
SK-MEL-5 melanoma = tested on: SK-MEL-5 melanoma

c1ccc2c(c1)nnn2CNc1ccc(N2CCCCC2)cc1
TGI (786-0 renal): > 100 µM
TGI (A498 renal): > 100 µM
TGI (A549 NSCLC): > 100 µM
TGI (ACHN renal): > 100 µM
TGI (CCRF-CEM leukemia): > 100 µM
TGI (COLO 205 colon): > 100 µM
TGI (DLD-1 colon): > 100 µM
TGI (DMS 114 small cell lung): > 100 µM
TGI (DMS 273 small cell lung): > 100 µM
TGI (EKVX NSCLC): > 100 µM
TGI (HCC-2998 colon): > 100 µM
TGI (HCT-116 colon): > 100 µM
TGI (HCT-15 colon): > 100 µM
TGI (HL-60(TB) leukemia): > 100 µM
TGI (HOP-18 NSCLC): > 100 µM
TGI (HOP-62 NSCLC): > 100 µM
TGI (HOP-92 NSCLC): > 100 µM
TGI (HT29 colon): > 100 µM
TGI (IGROV1 ovarian): > 100 µM
TGI (K-562 leukemia): > 100 µM
TGI (KM12 colon): > 100 µM
TGI (KM20L2 colon): > 100 µM
TGI (LOX IMVI melanoma): > 100 µM
TGI (LXFL 529 NSCLC): > 100 µM
TGI (M14 melanoma): > 100 µM
TGI (MALME-3M melanoma): > 100 µM
TGI (MOLT-4 leukemia): > 100 µM
TGI (NCI-H226 lung): > 100 µM
TGI (NCI-H23 lung): > 100 µM
TGI (NCI-H460 lung): > 100 µM
TGI (NCI-H522 lung): > 100 µM
TGI (OVCAR-3 ovarian): > 100 µM
TGI (OVCAR-4 ovarian): > 100 µM
TGI (OVCAR-8 ovarian): > 100 µM
TGI (RPMI-8226 leukemia): > 100 µM
TGI (RXF 393 renal): > 100 µM
TGI (SF-268 CNS): > 100 µM
TGI (SF-295 CNS): > 100 µM
TGI (SF-539 CNS): > 100 µM
TGI (SK-MEL-2 melanoma): > 100 µM
TGI (SK-MEL-28 melanoma): > 100 µM
TGI (SK-OV-3 ovarian): > 100 µM
TGI (SN12C renal): > 100 µM
TGI (SNB-19 CNS): > 100 µM
TGI (SNB-75 CNS): > 100 µM
TGI (SNB-78 CNS): > 100 µM
TGI (SR leukemia): > 100 µM
TGI (SW-620 colon): > 100 µM
TGI (TK-10 renal): > 100 µM
TGI (U251 CNS): > 100 µM
TGI (UACC-257 melanoma): > 100 µM
TGI (UACC-62 melanoma): > 100 µM
TGI (UO-31 renal): > 100 µM
TGI (XF 498 CNS): > 100 µM

COc1cccc(/C=N/[N-]C(=O)c2ccncc2)c1[O-].[Mn+2].[OH3+]
GI50 (786-0 renal): 5.43 µM
TGI (786-0 renal): > 100 µM
GI50 (A498 renal): 27.4 µM
TGI (A498 renal): 94.3 µM
GI50 (A549 NSCLC): 5.69 µM
TGI (A549 NSCLC): > 100 µM
GI50 (ACHN renal): 3.75 µM
TGI (ACHN renal): 47.8 µM
GI50 (CAKI-1 renal): 8.97 µM
TGI (CAKI-1 renal): > 100 µM
GI50 (CCRF-CEM leukemia): 1.8 µM
TGI (CCRF-CEM leukemia): 6.26 µM
GI50 (COLO 205 colon): 4.49 µM
TGI (COLO 205 colon): > 100 µM
GI50 (DLD-1 colon): 5.23 µM
TGI (DLD-1 colon): > 100 µM
GI50 (DMS 114 small cell lung): 14.6 µM
TGI (DMS 114 small cell lung): 58.7 µM
GI50 (DMS 273 small cell lung): 6.73 µM
TGI (DMS 273 small cell lung): 73.5 µM
GI50 (EKVX NSCLC): 9.25 µM
TGI (EKVX NSCLC): > 100 µM
GI50 (HCC-2998 colon): 19 µM
TGI (HCC-2998 colon): > 100 µM
GI50 (HCT-116 colon): 3.63 µM
TGI (HCT-116 colon): > 100 µM
GI50 (HCT-15 colon): 4.14 µM
TGI (HCT-15 colon): > 100 µM
GI50 (HL-60(TB) leukemia): 1.45 µM
TGI (HL-60(TB) leukemia): 4.19 µM
GI50 (HOP-18 NSCLC): 14.7 µM
TGI (HOP-18 NSCLC): > 100 µM
GI50 (HOP-62 NSCLC): 5.86 µM
TGI (HOP-62 NSCLC): > 100 µM
GI50 (HOP-92 NSCLC): 24.7 µM
TGI (HOP-92 NSCLC): > 100 µM
GI50 (HT29 colon): 4.7 µM
TGI (HT29 colon): > 100 µM
GI50 (IGROV1 ovarian): 8.29 µM
TGI (IGROV1 ovarian): > 100 µM
GI50 (K-562 leukemia): 2.9 µM
TGI (K-562 leukemia): 9.69 µM
GI50 (KM12 colon): 8.31 µM
TGI (KM12 colon): > 100 µM
GI50 (KM20L2 colon): 4.51 µM
TGI (KM20L2 colon): > 100 µM
GI50 (LOX IMVI melanoma): 6.59 µM
TGI (LOX IMVI melanoma): > 100 µM
GI50 (LXFL 529 NSCLC): 15.3 µM
TGI (LXFL 529 NSCLC): > 100 µM
GI50 (M14 melanoma): 7.96 µM
TGI (M14 melanoma): 52.4 µM
GI50 (M19-MEL melanoma): 7.54 µM
TGI (M19-MEL melanoma): 46.4 µM
GI50 (MALME-3M melanoma): 25.5 µM
TGI (MALME-3M melanoma): > 100 µM
GI50 (MOLT-4 leukemia): 3.24 µM
TGI (MOLT-4 leukemia): > 100 µM
GI50 (NCI-H226 lung): 12.4 µM
TGI (NCI-H226 lung): 86.5 µM
GI50 (NCI-H23 lung): 8.12 µM
TGI (NCI-H23 lung): 41.1 µM
GI50 (NCI-H460 lung): 4.34 µM
TGI (NCI-H460 lung): > 100 µM
GI50 (OVCAR-3 ovarian): 3.51 µM
TGI (OVCAR-3 ovarian): > 100 µM
GI50 (OVCAR-4 ovarian): 22.1 µM
TGI (OVCAR-4 ovarian): > 100 µM
GI50 (OVCAR-5 ovarian): 37 µM
TGI (OVCAR-5 ovarian): 88.9 µM
GI50 (OVCAR-8 ovarian): 3.77 µM
TGI (OVCAR-8 ovarian): > 100 µM
GI50 (RPMI-8226 leukemia): 6 µM
TGI (RPMI-8226 leukemia): > 100 µM
GI50 (SF-268 CNS): 4.97 µM
TGI (SF-268 CNS): 79.5 µM
GI50 (SF-295 CNS): 16.2 µM
TGI (SF-295 CNS): > 100 µM
GI50 (SF-539 CNS): 2.51 µM
TGI (SF-539 CNS): 8.97 µM
GI50 (SK-MEL-2 melanoma): 25.6 µM
TGI (SK-MEL-2 melanoma): > 100 µM
GI50 (SK-MEL-28 melanoma): 11.2 µM
TGI (SK-MEL-28 melanoma): > 100 µM
GI50 (SK-MEL-5 melanoma): 12.3 µM
TGI (SK-MEL-5 melanoma): 30.3 µM
GI50 (SK-OV-3 ovarian): 5.94 µM
TGI (SK-OV-3 ovarian): 50.2 µM
GI50 (SN12C renal): 17.8 µM
TGI (SN12C renal): > 100 µM
GI50 (SNB-19 CNS): 42 µM
TGI (SNB-19 CNS): > 100 µM
GI50 (SNB-75 CNS): 26.8 µM
TGI (SNB-75 CNS): > 100 µM
GI50 (SNB-78 CNS): > 100 µM
TGI (SNB-78 CNS): > 100 µM
GI50 (SR leukemia): 3.63 µM
TGI (SR leukemia): > 100 µM
GI50 (SW-620 colon): 4.42 µM
TGI (SW-620 colon): > 100 µM
GI50 (TK-10 renal): 18.3 µM
TGI (TK-10 renal): > 100 µM
GI50 (U251 CNS): 5.45 µM
TGI (U251 CNS): > 100 µM
GI50 (UACC-257 melanoma): 5.05 µM
TGI (UACC-257 melanoma): 96.2 µM
GI50 (UACC-62 melanoma): 3.9 µM
TGI (UACC-62 melanoma): 23.2 µM
GI50 (UO-31 renal): 3.83 µM
TGI (UO-31 renal): 26.5 µM
GI50 (XF 498 CNS): 12.3 µM
TGI (XF 498 CNS): 86.9 µM
